Experimental data taken from ChEMBL document CHEMBL5120839, “Design, synthesis and antibacterial activity of novel pleuromutilin derivatives with thieno[2,3-d]pyrimidine substitution” (Eur J Med Chem, 2022).
In brackets after ≈: the same amount, converted by molar mass.

Assays:
Format in all cases: functional
[1] = test system: Staphylococcus aureus; assay: Antibacterial activity against Staphylococcus aureus assessed as diameter of the inhibition circle at 1 mg/ml incubated for 48 hrs
[2] = test system: Escherichia coli; assay: Antibacterial activity against Escherichia coli assessed as inhibition of bacterial growth incubated for 24 hrs by microbroth two-fold dilution method
[3] = test system: Streptococcus agalactiae; assay: Antibacterial activity against Streptococcus agalactiae assessed as inhibition of bacterial growth incubated for 24 hrs by microbroth two-fold dilution method
[4] = test system: Staphylococcus aureus; assay: Antibacterial activity against Staphylococcus aureus assessed as inhibition of bacterial growth incubated for 24 hrs by microbroth two-fold dilution method

Row | Structure (SMILES) | inhibition zone diameter [1] [mm] | MIC [2] [µg/mL] | MIC [3] [µg/mL] | MIC [4] [µg/mL] | Activity [1] [mM]
1 | C=C[C@]1(C)C[C@@H](OC(=O)CSc2nc(N/N=C/c3ccc(OC)cc3O)c3ccsc3n2)[C@]2(C)[C@H](C)CC[C@]3(CCC(=O)[C@H]32)[C@@H](C)[C@@H]1O | 23 | > 15.6 | 0.244 (≈ 0.352 µM) | 7.81 (≈ 11.3 µM) | –
2 | C=C[C@]1(C)C[C@@H](OC(=O)CSc2nc(N3CCOCC3)c3ccsc3n2)[C@]2(C)[C@H](C)CC[C@]3(CCC(=O)[C@H]32)[C@@H](C)[C@@H]1O | 21.6 | 1.95 (≈ 3.18 µM) | 0.061 (≈ 0.0994 µM) | 0.122 (≈ 0.199 µM) | –
3 | C=C[C@]1(C)C[C@@H](OC(=O)CSc2nc(N/N=C/c3ccccc3[N+](=O)[O-])c3ccsc3n2)[C@]2(C)[C@H](C)CC[C@]3(CCC(=O)[C@H]32)[C@@H](C)[C@@H]1O | 21.5 | 7.81 (≈ 11.3 µM) | 0.0153 (≈ 0.0221 µM) | 7.81 (≈ 11.3 µM) | –
4 | C=C[C@]1(C)C[C@@H](OC(=O)CSc2nc(N/N=C/c3ccccc3OC)c3ccsc3n2)[C@]2(C)[C@H](C)CC[C@]3(CCC(=O)[C@H]32)[C@@H](C)[C@@H]1O | 21.1 | > 15.6 | 0.244 (≈ 0.361 µM) | 0.977 (≈ 1.44 µM) | –
5 | C=C[C@]1(C)C[C@@H](OC(=O)CSc2nc(N3CCC(C)CC3)c3ccsc3n2)[C@]2(C)[C@H](C)CC[C@]3(CCC(=O)[C@H]32)[C@@H](C)[C@@H]1O | 10.9 | > 15.6 | 7.81 (≈ 12.5 µM) | 15.6 (≈ 25 µM) | –
6 | C=C[C@]1(C)C[C@@H](OC(=O)CSc2nccc(N3CCN(CC)CC3)n2)[C@]2(C)[C@H](C)CC[C@]3(CCC(=O)[C@H]32)[C@@H](C)[C@@H]1O | 28.6 | 1.95 (≈ 3.34 µM) | 0.122 (≈ 0.209 µM) | 0.122 (≈ 0.209 µM) | –
7 | C=C[C@]1(C)C[C@@H](OC(=O)CSc2nc(N3CCCC3)c3ccsc3n2)[C@]2(C)[C@H](C)CC[C@]3(CCC(=O)[C@H]32)[C@@H](C)[C@@H]1O | 17.8 | > 15.6 | 0.061 (≈ 0.102 µM) | 3.91 (≈ 6.53 µM) | –
8 | C=C[C@]1(C)C[C@@H](OC(=O)CSc2nc(N3CCN(C)CC3)c3ccsc3n2)[C@]2(C)[C@H](C)CC[C@]3(CCC(=O)[C@H]32)[C@@H](C)[C@@H]1O | 26.1 | 7.81 (≈ 12.5 µM) | 0.244 (≈ 0.389 µM) | 0.122 (≈ 0.195 µM) | –
9 | C=C[C@]1(C)C[C@@H](OC(=O)CSc2nc(N/N=C/c3ccc(F)cc3)c3ccsc3n2)[C@]2(C)[C@H](C)CC[C@]3(CCC(=O)[C@H]32)[C@@H](C)[C@@H]1O | 20.2 | 15.6 (≈ 23.5 µM) | 0.244 (≈ 0.367 µM) | 7.81 (≈ 11.7 µM) | –
10 | C=C[C@]1(C)C[C@@H](OC(=O)CSc2nc(N3CCN(CC)CC3)cc(C(F)(F)F)n2)[C@]2(C)[C@H](C)CC[C@]3(CCC(=O)[C@H]32)[C@@H](C)[C@@H]1O | 21 | 1.95 (≈ 2.99 µM) | 0.244 (≈ 0.374 µM) | 0.488 (≈ 0.748 µM) | –
11 | C=C[C@]1(C)C[C@@H](OC(=O)CSc2nc(N/N=C/c3ccc(F)cc3F)c3ccsc3n2)[C@]2(C)[C@H](C)CC[C@]3(CCC(=O)[C@H]32)[C@@H](C)[C@@H]1O | 22.8 | > 15.6 | 0.061 (≈ 0.0893 µM) | 7.81 (≈ 11.4 µM) | –
12 | C=C[C@]1(C)C[C@@H](OC(=O)CSc2nc(C)cc(NCCO)n2)[C@]2(C)[C@H](C)CC[C@]3(CCC(=O)[C@H]32)[C@@H](C)[C@@H]1O | 22.8 | 7.81 (≈ 14.3 µM) | 0.244 (≈ 0.447 µM) | 0.244 (≈ 0.447 µM) | –
13 | C=C[C@]1(C)C[C@@H](OC(=O)CSc2nc(N3CCSCC3)c3ccsc3n2)[C@]2(C)[C@H](C)CC[C@]3(CCC(=O)[C@H]32)[C@@H](C)[C@@H]1O | 14 | > 15.6 | 1.95 (≈ 3.1 µM) | 7.81 (≈ 12.4 µM) | –
14 | C=C[C@]1(C)C[C@@H](OC(=O)CSc2nc(N(C)C)c3ccsc3n2)[C@]2(C)[C@H](C)CC[C@]3(CCC(=O)[C@H]32)[C@@H](C)[C@@H]1O | 21.8 | 15.6 (≈ 27.3 µM) | 1.95 (≈ 3.42 µM) | 3.91 (≈ 6.83 µM) | –
15 | C=C[C@]1(C)C[C@@H](OC(=O)CSc2ncc(C)c(N3CCN(CC)CC3)n2)[C@]2(C)[C@H](C)CC[C@]3(CCC(=O)[C@H]32)[C@@H](C)[C@@H]1O | 26.6 | 3.91 (≈ 6.52 µM) | 0.244 (≈ 0.408 µM) | 0.244 (≈ 0.408 µM) | –
16 | C=C[C@]1(C)C[C@@H](OC(=O)CSc2nc(N/N=C/c3ccc(O)c(Br)c3)c3ccsc3n2)[C@]2(C)[C@H](C)CC[C@]3(CCC(=O)[C@H]32)[C@@H](C)[C@@H]1O | 21 | > 15.6 | 1.95 (≈ 2.63 µM) | 3.91 (≈ 5.27 µM) | –
17 | C=C[C@]1(C)C[C@@H](OC(=O)CSc2nc(N3CCN(CC)CC3)c3ccccc3n2)[C@]2(C)[C@H](C)CC[C@]3(CCC(=O)[C@H]32)[C@@H](C)[C@@H]1O | 22.1 | 3.91 (≈ 6.15 µM) | 0.244 (≈ 0.384 µM) | 0.488 (≈ 0.769 µM) | –
18 | C=C[C@]1(C)C[C@@H](OC(=O)CSc2nc(N/N=C/c3ccccc3Br)c3ccsc3n2)[C@]2(C)[C@H](C)CC[C@]3(CCC(=O)[C@H]32)[C@@H](C)[C@@H]1O | 22.8 | > 15.6 | 0.977 (≈ 1.35 µM) | 15.6 (≈ 21.5 µM) | –
19 | C=C[C@]1(C)C[C@@H](OC(=O)CSc2nccc(NCCO)n2)[C@]2(C)[C@H](C)CC[C@]3(CCC(=O)[C@H]32)[C@@H](C)[C@@H]1O | – | 3.91 (≈ 7.35 µM) | 0.488 (≈ 0.918 µM) | 0.122 (≈ 0.23 µM) | 27.3
20 | C=C[C@]1(C)C[C@@H](OC(=O)CSc2nc(N3CCCNCC3)c3ccsc3n2)[C@]2(C)[C@H](C)CC[C@]3(CCC(=O)[C@H]32)[C@@H](C)[C@@H]1O | 26.2 | 0.976 (≈ 1.56 µM) | 0.061 (≈ 0.0973 µM) | 0.122 (≈ 0.195 µM) | –
21 | C=C[C@]1(C)C[C@@H](OC(=O)CSc2nc(N/N=C/c3ccc(C(F)(F)F)cc3)c3ccsc3n2)[C@]2(C)[C@H](C)CC[C@]3(CCC(=O)[C@H]32)[C@@H](C)[C@@H]1O | 22.2 | > 15.6 | 0.244 (≈ 0.341 µM) | 7.81 (≈ 10.9 µM) | –
22 | C=C[C@]1(C)C[C@@H](OC(=O)CSc2ncc(C)c(NCCO)n2)[C@]2(C)[C@H](C)CC[C@]3(CCC(=O)[C@H]32)[C@@H](C)[C@@H]1O | 27.6 | 3.91 (≈ 7.16 µM) | 0.122 (≈ 0.224 µM) | 0.244 (≈ 0.447 µM) | –
23 | C=C[C@]1(C)C[C@@H](OC(=O)CSc2nc(NCCO)cc(C(F)(F)F)n2)[C@]2(C)[C@H](C)CC[C@]3(CCC(=O)[C@H]32)[C@@H](C)[C@@H]1O | 29 | 0.488 (≈ 0.814 µM) | 0.488 (≈ 0.814 µM) | 0.488 (≈ 0.814 µM) | –
24 | C=C[C@]1(C)C[C@@H](OC(=O)CSc2nc(N/N=C/c3cccs3)c3ccsc3n2)[C@]2(C)[C@H](C)CC[C@]3(CCC(=O)[C@H]32)[C@@H](C)[C@@H]1O | 22.8 | 7.81 (≈ 12 µM) | 0.488 (≈ 0.748 µM) | 0.977 (≈ 1.5 µM) | –
25 | C=C[C@]1(C)C[C@@H](OC(=O)CSc2nc(N/N=C/c3ccc(OC)cc3)c3ccsc3n2)[C@]2(C)[C@H](C)CC[C@]3(CCC(=O)[C@H]32)[C@@H](C)[C@@H]1O | 18.8 | > 15.6 | 0.0305 (≈ 0.0451 µM) | 7.81 (≈ 11.5 µM) | –
26 | C=C[C@]1(C)C[C@@H](OC(=O)CSc2nc(N3CCN(CC)CC3)c3c(C)csc3n2)[C@]2(C)[C@H](C)CC[C@]3(CCC(=O)[C@H]32)[C@@H](C)[C@@H]1O | 31.2 | 0.977 (≈ 1.49 µM) | 0.0076 (≈ 0.0116 µM) | 0.244 (≈ 0.373 µM) | –
27 | C=C[C@]1(C)C[C@@H](OC(=O)CSc2nc(NCCO)c3c(C)csc3n2)[C@]2(C)[C@H](C)CC[C@]3(CCC(=O)[C@H]32)[C@@H](C)[C@@H]1O | 25.9 | 0.977 (≈ 1.62 µM) | 0.488 (≈ 0.811 µM) | 0.122 (≈ 0.203 µM) | –
28 | C=C[C@]1(C)C[C@@H](OC(=O)CSc2nc(C)cc(N3CCN(CC)CC3)n2)[C@]2(C)[C@H](C)CC[C@]3(CCC(=O)[C@H]32)[C@@H](C)[C@@H]1O | 23.9 | 3.91 (≈ 6.52 µM) | 0.122 (≈ 0.204 µM) | 0.244 (≈ 0.408 µM) | –
29 | C=C[C@]1(C)C[C@@H](OC(=O)CSc2nc(N3CCC(N(C)C)CC3)c3ccsc3n2)[C@]2(C)[C@H](C)CC[C@]3(CCC(=O)[C@H]32)[C@@H](C)[C@@H]1O | 27.2 | 3.91 (≈ 5.96 µM) | 0.122 (≈ 0.186 µM) | 0.244 (≈ 0.373 µM) | –
